# Experiments:
# Format in all cases: cell-based
# Bacillus cereus = experiment: Filter paper disc agar diffusion, antibacterial activity
# Method: (§1) The pure bacterial cultures of test bacteria were procured from laboratory culture collection maintained at RRL, Jammu. The bacterial organisms were subcultured on L B. broth. Following filter paper disc agar diffusion method (Maruzella, J. C. and Henry, P. A. 1958, the antifungal activity of perfume oils. J. Amer. Pharm. Ass., 47:471-476).
# (§2) 20 ml of sterilized medium was taken in each petriplate. After the agar has hardened, 2 ml of 24 hrs. broth culture of organism was added to each petriplate and mixed thoroughly by rotatory motion of the plate and allowed to set. The sterilized Whatman filter paper No. 1 discs (4 mm diameter) were thoroughly moistened with 5 μl of (+)-1-bisabolone of formula 1 in dilution of 1:50, 1:100 in the solvent Tween-80 and placed on the seeded agar plates. The standard antibiotic disc of ampicillin was placed on surface of each seeded petriplate as standard for anti-bacterial activity. Three each of seeded agar plates for each organism were incubated at 37° C. for 36 hrs. […] The zone of inhibition was measured with the help of a divider. The […] were performed in triplicate and average zones of inhibition for anti-bacterial activity are recorded in Table-2.
# Bacillus subtilis = experiment: as above
# Method: as §1, §2
# Staphylococcus aureus = experiment: as above
# Method: as §1, §2
# other test bacteria = experiment: In vitro antibacterial activity, other test bacteria
# Method: as §1, §2
# gram positive bacteria = experiment: In vitro antibacterial activity compared with standard ampicillin
# Method: as §1, §2
# [1] = Pure 1, 4 mm disc, 37° C., 36 hrs
# [2] = dilution 1:50 in Tween-80, 5 μl on 4 mm disc, 37° C., 36 hrs
# [3] = dilution 1:100 in Tween-80, 5 μl on 4 mm disc, 37° C., 36 hrs
# [4] = control (standard antibiotic disc of ampicillin)
Structure (SMILES),in vitro antibacterial activity (in words) (Bacillus cereus),Diameter (mm) of zone inhibition (Bacillus cereus; [1]),Diameter (mm) of zone inhibition (Bacillus cereus; [2]),Diameter (mm) of zone inhibition (Bacillus cereus; [3]),in vitro antibacterial activity (in words) (Bacillus subtilis),Diameter (mm) of zone inhibition (Bacillus subtilis; [1]),Diameter (mm) of zone inhibition (Bacillus subtilis; [2]),Diameter (mm) of zone inhibition (Bacillus subtilis; [3]),in vitro antibacterial activity (in words) (Staphylococcus aureus),Diameter (mm) of zone inhibition (Staphylococcus aureus; [1]),Diameter (mm) of zone inhibition (Staphylococcus aureus; [2]),Diameter (mm) of zone inhibition (Staphylococcus aureus; [3]),in vitro antibacterial activity (in words) (other test bacteria),activity compared with the standard ampicillin (gram positive bacteria),Diameter (mm) of zone inhibition (Bacillus cereus; [4]),Diameter (mm) of zone inhibition (Bacillus subtilis; [4]),Diameter (mm) of zone inhibition (Staphylococcus aureus; [4])
CC(C)=CCC[C@H](C)[C@H]1CCC(C)=CC1=O [(+)-1-bisabolone],strongly active,21 mm,13 mm,9 mm,strongly active,19 mm,15 mm,13 mm,strongly active,24 mm,19 mm,13 mm,good to moderate activity,far better activity,,,
"CC1(C)S[C@@H]2[C@H](NC(=O)[C@H](N)c3ccccc3)C(=O)N2[C@H]1C(=O)O [control, ampicillin, reference compound]",,,,,,,,,,,,,,,4 mm,5 mm,6 mm
